Laboratory results as given in patent EP4737450A1 (Longwood Pharmaceuticals (Hangzhou) Co., Ltd, priority 2023, dated 2025).

What follows are molecules tested against T1, plasma kallikrein (PKa) (Homo sapiens, UniProt P03952) (assay: Inhibitory activity against plasma kallikrein in vitro (fluorescence intensity enzyme assay, Pro-Phe-Arg-AMC substrate)). Details: PKa IC50, plasma kallikrein enzyme assay, Pro-Phe-Arg-AMC substrate.
T1 construct: purchased R & D 2497-SE
T1 sequence (P03952 391-638 limits assumed): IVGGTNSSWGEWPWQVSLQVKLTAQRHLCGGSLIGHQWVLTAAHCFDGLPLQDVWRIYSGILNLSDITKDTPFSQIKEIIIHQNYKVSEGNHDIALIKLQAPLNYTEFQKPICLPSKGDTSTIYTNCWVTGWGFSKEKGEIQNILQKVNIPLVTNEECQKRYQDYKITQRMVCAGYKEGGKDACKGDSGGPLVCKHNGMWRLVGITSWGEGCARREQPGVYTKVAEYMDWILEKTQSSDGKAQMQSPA
T1 sequence (P03952 20-390 partner limits assumed): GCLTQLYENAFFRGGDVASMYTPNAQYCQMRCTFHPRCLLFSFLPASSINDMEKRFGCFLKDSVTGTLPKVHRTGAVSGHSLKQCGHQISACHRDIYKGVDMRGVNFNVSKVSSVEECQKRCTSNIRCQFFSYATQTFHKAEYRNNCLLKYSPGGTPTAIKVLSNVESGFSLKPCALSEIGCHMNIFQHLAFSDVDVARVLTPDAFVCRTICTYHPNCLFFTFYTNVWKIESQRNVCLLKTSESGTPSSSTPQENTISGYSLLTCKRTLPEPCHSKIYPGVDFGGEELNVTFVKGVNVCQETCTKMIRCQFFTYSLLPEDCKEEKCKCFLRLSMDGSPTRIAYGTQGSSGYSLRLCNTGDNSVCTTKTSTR
Format: biochemical
Method: Test of the inhibitory activities of the compounds of the present invention against plasma kallikrein (PKa), KLK1 and FXIa in vitro.
The final concentrations of enzyme protein and Pro-Phe-Arg-AMC in the reaction mixture were 10 nM and 60 µM, respectively. The starting concentration of the positive reference substance Avoralstat was 100 nM, 3-fold dilution, 10 + 0 dose. 0.05 µL of compound in 100% DMSO was delivered to a 384-well plate by an acoustic liquid delivery technique (Echo665; nanoliter range). Compound duplex test. […] IC50 values and nonlinear regression curve fitting were obtained using GraphPad Prism software.
Molecule `COCc1nn(Cc2ccc(Cn3ccccc3=O)cc2)cc1C(=O)NCc1ncc2c(n1)CNC2` [Compound 144] has an IC50 of 25.9 nM.

Same assay, conditions: plasma kallikrein enzyme assay, Pro-Phe-Arg-AMC substrate; read-out: PKa IC50
For `COc1ccc(C#N)c(CNC(=O)c2cn(Cc3ccc(Cn4ccccc4=O)cc3)nc2C(F)(F)F)c1C` [Compound 202], the IC50 was greater than 1000 nM.
With `COc1ccnc(CNC(=O)c2cn(Cc3ccc(Cn4ccccc4=O)cc3)nc2COCC2(F)COC2)c1F` [Compound 235, N-((3-fluoro-4-methoxypyridin-2-yl)methyl)-3-((3-fluorooxetan-3-yl)methoxy)methyl] the IC50 was 3.33 nM.
Work on `O=C(NCc1nccc(NC2COC2)c1F)c1cn(Cc2ccc(Cn3ccccc3=O)cc2)nc1N1CC(F)(F)C1` [Compound 332] yielded an IC50 of 540 nM.
In the case of `COCc1nn(Cc2ccc(Cn3ccccc3=O)cc2)cc1C(=O)NCc1c(C#N)ccc(OC)c1C` [Compound 190], the IC50 is reported as greater than 1000 nM.
`O=C(NCc1ncc2ccn(CCO)c2c1F)c1cnn(Cc2ccc(Cn3ccccc3=O)cc2)c1` [Compound 369, N-((7-fluoro-1-(2-hydroxyethyl)-1H-pyrrolo[3,2-c]pyridin-6-yl)methyl)-1-(4-((2-oxopyridin-1(2H)-yl)methyl]benzyl)-1H-pyrazole-4-carboxamide] showed an IC50 of 787 nM.
Work on `COCc1nn(Cc2ccc(Oc3ccccc3)cc2)cc1C(=O)NCc1ccc2nccn2c1` [Compound 125] yielded an IC50 of 329 nM.
In the case of `Cc1cc(N)nc(C)c1CNC(=O)c1cnn(Cc2ccc(CC3CC3)cc2)c1` [Compound 280], the IC50 is reported as 2.64 nM.
Molecule `N=C(N)c1cnc(CNC(=O)c2cnn(Cc3ccc(CC4CC4)cc3)c2)c(F)c1` [Compound 358] has an IC50 of 6.06 nM.
Work on `COCc1nn(Cc2ccc(N3CCCCC3=O)cc2C#N)cc1C(=O)NCc1nccc(OC)c1F` [Compound 182] yielded an IC50 greater than 1000 nM.
In the case of `Cc1cc(Cl)nc(C)c1CNC(=O)c1ncn(Cc2ccc(Cn3ccccc3=O)cc2)n1` [Compound 100], the IC50 is reported as greater than 100 nM.
`COc1ccnc(CNC(=O)c2cn(Cc3ccc(Cn4ccccc4=O)cc3)nc2N2CC3(COC3)C2)c1F` [Compound 288] gave an IC50 of 11.5 nM.
With `COCc1nn(Cc2ccc(N3CC4C(C3)C4(F)F)cc2C#N)cc1C(=O)NCc1cn2c(n1)CNCC2` (stereo not drawn) [Compound 104] the IC50 was greater than 100 nM.
For `O=C(NCc1nccc(N2CCC2)c1F)c1cn(Cc2ccc(Cn3ccccc3=O)cc2)nc1C1COC1` [Compound 346], the IC50 was 5.64 nM.
Molecule `COCc1nn(Cc2ccc(CN3CC(F)(F)C3)cc2)cc1C(=O)NCc1nccc(OC)c1F` [Compound 103] has an IC50 greater than 100 nM.
With `COc1ccnc(CNC(=O)c2cn(Cc3ccc(Cn4ccccc4=O)cc3)nc2COCC(C)(C)OC)c1F` [Compound 299] the IC50 was 11.2 nM.
Molecule `Cc1cc(N)nc(C)c1CNC(=O)c1ncn(Cc2ccc(-n3ccccc3=O)cc2)n1` [Compound 63] has an IC50 of 16.7 nM.
`Cn1c(CNC(=O)c2cn(Cc3ccc(Cn4ccccc4=O)cc3)nc2C(F)(F)F)cc2cnccc21` [Compound 196] showed an IC50 of 15.3 nM.
`COc1ccc(F)c(CNC(=O)c2cn(Cc3ccc(Cn4ccccc4=O)cc3)nc2C2CC(C)(OC)C2)c1F` (stereo not drawn) [Compound 211] gave an IC50 of 8.34 nM.
With `COc1ccnc(CNC(=O)c2cn(Cc3ccc(CN4C(=O)C5(CC5)c5ccc(F)cc54)cc3)nc2C(F)(F)F)c1F` [Compound 181] the IC50 was 613 nM.
With `CC[C@@H](COC)OCc1nn(Cc2ccc(Cn3ccccc3=O)cc2)cc1C(=O)NCc1nccc(OC)c1F` [Compound 172] the IC50 was 113 nM.
Molecule `Nc1cc2c(cn1)[C@H](NC(=O)c1ncn(Cc3cn4cc(C5CC5)ccc4n3)n1)CC2` [Compound 45] has an IC50 greater than 100 nM.
In the case of `COc1ccc(F)c(CNC(=O)c2cn(Cc3ccc(Cn4cc(F)ccc4=O)cc3)nc2COCC2(C)COC2)c1F` [Compound 285], the IC50 is reported as 10.5 nM.
`COCc1nn(Cc2ccc(Cn3ccccc3=O)cc2)cc1C(=O)NCc1ccc2nccn2c1` [Compound 126] was tested, and the IC50 was 229 nM.
Molecule `COCc1nn(Cc2ccc(N3CCOCC3=O)cc2)cc1C(=O)NCc1nccc(OC)c1F` [Compound 89] has an IC50 greater than 100 nM.
`COCc1nn(Cc2ccc(N3CCOCC3=O)cc2)cc1C(=O)NCc1cn2c(n1)CNCC2` [Compound 112] was tested, and the IC50 was greater than 100 nM.
Work on `COCc1nn(Cc2cn3cc(C4CC4)ccc3n2)cc1C(=O)NCc1c(C)cc(N)nc1C` [Compound 21] yielded an IC50 of 2.98 nM.
`CNC(=N)c1ccc(CNC(=O)c2cnn(Cc3ccc(CC4CC4)cc3)c2)cc1` [Compound 271] gave an IC50 of 855 nM.
`CN(C)c1ccnc(CNC(=O)c2cn(Cc3ccc(Cn4ccccc4=O)cc3)nc2C2CC(F)(F)C2)c1F` [Compound 342] was tested, and the IC50 was 6.29 nM.
In the case of `Nc1ccnc(CNC(=O)c2cn(Cc3ccc(Cn4ccccc4=O)cc3)nc2N2CC(F)(F)C2)c1F` [Compound 268], the IC50 is reported as 68.6 nM.
`COc1ccnc(CNC(=O)c2cn(Cc3ccc(Cn4ccccc4=O)cc3)nc2N2CCOCC2)c1F` [Compound 224] showed an IC50 of 28.2 nM.
`COCc1nn(Cc2ccc(Oc3ccccc3)cc2)cc1C(=O)NCc1ccn2ccnc2c1` [Compound 141] gave an IC50 greater than 1000 nM.
`Cn1cnc2c1CC[C@H]2NC(=O)c1nn(Cc2ccc(Cn3ccccc3=O)cc2)cc1C(F)F` [Compound 58] gave an IC50 of 17.4 nM.
With `O=C(NCc1cc2ccncc2[nH]1)c1nc(Cc2ccc(Cn3ccccc3=O)cc2)ns1` [Compound 177] the IC50 was 17.5 nM.
For `COCc1nn(Cc2ccc(-n3ccccc3=O)cc2)cc1C(=O)NCc1nccc(OC)c1F` [Compound 92], the IC50 was greater than 100 nM.
`N#Cc1cc(N2CC3C(C2)C3(F)F)ccc1Cn1cnc(C(=O)NC2CCc3cc(N)ncc32)n1` (single isomer, unassigned) [Compound 53] was tested, and the IC50 was greater than 100 nM.
Work on `COc1ccnc(CNC(=O)c2cn(Cc3ccc(CN4CC(F)(F)C4)cc3)nc2C(F)(F)F)c1F` [Compound 124] yielded an IC50 greater than 1000 nM.
`Nc1ncc(CNC(=O)c2cnn(Cc3ccc(Cn4ccccc4=O)cc3)c2)s1` [Compound 36] showed an IC50 of 523 nM.
Work on `COc1ccc(F)c(CNC(=O)c2cn(Cc3ccc(Cn4ccccc4=O)cc3)nc2NC2(C)COC2)c1F` [Compound 300] yielded an IC50 of 1.94 nM.
In the case of `O=C(NCc1cc2cnccc2[nH]1)c1cn(Cc2ccc(Cn3ccccc3=O)cc2)nc1C(F)(F)F` [Compound 123], the IC50 is reported as 29.5 nM.
With `COc1ccnc(CNC(=O)c2cn(Cc3ccc(Cn4ccccc4=O)cc3)nc2COCC(=O)N(C)C)c1F` [Compound 164] the IC50 was 26.3 nM.
`COc1ccc(F)c(CNC(=O)c2cn(Cc3ccc(Cn4ccccc4=O)cc3)nc2COCCN2CCCC2)c1F` [Compound 230] gave an IC50 of 9.8 nM.
`COCc1nn(Cc2ccc(Cn3ccccc3=O)cc2)cc1C(=O)NCc1cc2cnccc2n1C` [Compound 139] was tested, and the IC50 was 12.6 nM.
With `Cn1ncc2cnc(CNC(=O)c3cnn(Cc4ccc(Cn5ccccc5=O)cc4)c3)c(F)c21` [Compound 376] the IC50 was 67 nM.
`Cc1cc(C(=N)N)nc(C)c1CNC(=O)c1cnn(Cc2ccc(CC3CC3)cc2)c1` [Compound 323] gave an IC50 of 65.6 nM.
In the case of `O=C(NCc1ccc2ccncc2c1)c1cnn(Cc2ccc(Cn3ccccc3=O)cc2)c1` [Compound 197], the IC50 is reported as 164 nM.
With `Cc1[nH]c(C(=O)NCc2cc3cnccc3[nH]2)c(C)c1Cc1ccc(Cn2ccccc2=O)cc1` [Compound 148] the IC50 was 347 nM.
`COc1ccnc(CNC(=O)c2cn(Cc3ccc(Cn4ccccc4=O)cc3)nc2-c2cncnc2)c1F` [Compound 304] gave an IC50 of 7.24 nM.
With `Cc1cn2cncc2c(C)c1CNC(=O)c1cn(Cc2ccc(N3CC4C(C3)C4(F)F)cc2C#N)nc1C(F)(F)F` (stereo not drawn) [Compound 200] the IC50 was 5.66 nM.
`CCc1cc(N2CC3C(C2)C3(F)F)ccc1Cn1cc(C(=O)NCc2cc3ccncc3[nH]2)c(C(F)(F)F)n1` (stereo not drawn) [Compound 199] showed an IC50 of 19.8 nM.
In the case of `COCc1nn(Cc2ccc(Cn3c(=O)sc4cccc(F)c43)cc2)cc1C(=O)NCc1nccc(OC)c1F` [Compound 160], the IC50 is reported as 413 nM.
